Experimental data as given in ChEMBL document CHEMBL3351417, “Thiophene-3-carboxamide analogue of annonaceous acetogenins as antitumor drug lead” (Eur J Med Chem, 2014).
Activity calls are given as the source filed them. No cut-off for these calls is given here.

Tested on: not listed separately
Assay: Growth inhibition of human RXF631L cells after 48 hrs by sulforhodamine B colorimetric assay
Assay type: functional
Conditions: RXF 631, 48 h

SMILES | GI50
CCCCCCCCCCCC[C@@H](O)[C@H]1CC[C@H]([C@H](O)CCCCCCCCCCNC(=O)c2ccsc2)O1 | > 100 µM

Tested on: not listed separately
Assay: Growth inhibition of human SNB78 cells after 48 hrs by sulforhodamine B colorimetric assay
Assay type: functional
Conditions: SNB-78, 48 h

SMILES | GI50
CCCCCCCCCCCC[C@@H](O)[C@H]1CC[C@H]([C@H](O)CCCCCCCCCCNC(=O)c2ccsc2)O1 | > 100 µM

Tested on: not listed separately
Assay: Growth inhibition of human DMS273 cells after 48 hrs by sulforhodamine B colorimetric assay
Assay type: functional
Conditions: DMS-273, 48 h

SMILES | GI50
CCCCCCCCCCCC[C@@H](O)[C@H]1CC[C@H]([C@H](O)CCCCCCCCCCNC(=O)c2ccsc2)O1 | 2 µM

Tested on: MCF7
Assay: Growth inhibition of human MCF7 cells after 48 hrs by sulforhodamine B colorimetric assay
Assay type: functional
Conditions: MCF7, 48 h

GI50 | SMILES
2 µM | CCCCCCCCCCCC[C@@H](O)[C@H]1CC[C@H]([C@H](O)CCCCCCCCCCNC(=O)c2ccsc2)O1

Tested on: NCI-H23
Assay: Growth inhibition of human NCI-H23 cells after 48 hrs by sulforhodamine B colorimetric assay
Assay type: functional
Conditions: NCI-H23, 48 h

GI50 | SMILES
0.2 µM | CCCCCCCCCCCC[C@@H](O)[C@H]1CC[C@H]([C@H](O)CCCCCCCCCCNC(=O)c2ccsc2)O1

Tested on: not listed separately
Assay: Growth inhibition of human MKN1 cells after 48 hrs by sulforhodamine B colorimetric assay
Assay type: functional
Conditions: MKN-1, 48 h

SMILES | GI50
CCCCCCCCCCCC[C@@H](O)[C@H]1CC[C@H]([C@H](O)CCCCCCCCCCNC(=O)c2ccsc2)O1 | 2.29 µM

Tested on: A549
Assay: Growth inhibition of human A549 cells after 48 hrs by sulforhodamine B colorimetric assay
Assay type: functional
Conditions: A549, 48 h

GI50 | SMILES
> 100 µM | CCCCCCCCCCCC[C@@H](O)[C@H]1CC[C@H]([C@H](O)CCCCCCCCCCNC(=O)c2ccsc2)O1

Tested on: SNB-75
Assay: Growth inhibition of human SNB75 cells after 48 hrs by sulforhodamine B colorimetric assay
Assay type: functional
Conditions: SNB-75, 48 h

SMILES | GI50
CCCCCCCCCCCC[C@@H](O)[C@H]1CC[C@H]([C@H](O)CCCCCCCCCCNC(=O)c2ccsc2)O1 | 2.82 µM

Tested on: NCI-H522
Assay: Growth inhibition of human NCI-H522 cells after 48 hrs by sulforhodamine B colorimetric assay
Assay type: functional
Conditions: NCI-H522, 48 h

GI50 | SMILES
1 µM | CCCCCCCCCCCC[C@@H](O)[C@H]1CC[C@H]([C@H](O)CCCCCCCCCCNC(=O)c2ccsc2)O1

Tested on: NCI-H226
Assay: Growth inhibition of human NCI-H226 cells after 48 hrs by sulforhodamine B colorimetric assay
Assay type: functional
Conditions: NCI-H226, 48 h

GI50 | SMILES
2.4 µM | CCCCCCCCCCCC[C@@H](O)[C@H]1CC[C@H]([C@H](O)CCCCCCCCCCNC(=O)c2ccsc2)O1

Tested on: St-4
Assay: Growth inhibition of human St-4 cells after 48 hrs by sulforhodamine B colorimetric assay
Assay type: functional
Conditions: St-4, 48 h

SMILES | GI50
CCCCCCCCCCCC[C@@H](O)[C@H]1CC[C@H]([C@H](O)CCCCCCCCCCNC(=O)c2ccsc2)O1 | 1.7 µM

Tested on: not listed separately
Assay: Growth inhibition of human HBC5 cells after 48 hrs by sulforhodamine B colorimetric assay
Assay type: functional
Conditions: HBC5, 48 h

SMILES | GI50
CCCCCCCCCCCC[C@@H](O)[C@H]1CC[C@H]([C@H](O)CCCCCCCCCCNC(=O)c2ccsc2)O1 | 2.09 µM

Tested on: MDA-MB-231
Assay: Growth inhibition of human MDA-MB-231 cells after 48 hrs by sulforhodamine B colorimetric assay
Assay type: functional
Conditions: MDA-MB-231, 48 h

GI50 | SMILES
4.47 µM | CCCCCCCCCCCC[C@@H](O)[C@H]1CC[C@H]([C@H](O)CCCCCCCCCCNC(=O)c2ccsc2)O1

Tested on: KM12
Assay: Growth inhibition of human KM12 cells after 48 hrs by sulforhodamine B colorimetric assay
Assay type: functional
Conditions: KM12, 48 h

SMILES | GI50
CCCCCCCCCCCC[C@@H](O)[C@H]1CC[C@H]([C@H](O)CCCCCCCCCCNC(=O)c2ccsc2)O1 | 3.02 µM

Tested on: not listed separately
Assay: Growth inhibition of human PC3 cells after 48 hrs by sulforhodamine B colorimetric assay
Assay type: functional
Conditions: PC-3, 48 h

SMILES | GI50
CCCCCCCCCCCC[C@@H](O)[C@H]1CC[C@H]([C@H](O)CCCCCCCCCCNC(=O)c2ccsc2)O1 | 1.7 µM

Tested on: NCI-H23
Assay: Antitumor activity against human NCI-H23 cells xenografted in mouse assessed as average tumor size on day 16 at 100 mg/kg, ip on day 0 and day 6 relative to control mouse
Assay type: functional
Conditions: route intraperitoneal

SMILES | Activity
CCCCCCCCCCCC[C@@H](O)[C@H]1CC[C@H]([C@H](O)CCCCCCCCCCNC(=O)c2ccsc2)O1 | 16%

Tested on: not listed separately
Assay: Growth inhibition of human OVCAR3 cells after 48 hrs by sulforhodamine B colorimetric assay
Assay type: functional
Conditions: OVCAR-3, 48 h

SMILES | GI50
CCCCCCCCCCCC[C@@H](O)[C@H]1CC[C@H]([C@H](O)CCCCCCCCCCNC(=O)c2ccsc2)O1 | 1.7 µM

Tested on: not listed separately
Assay: Growth inhibition of human MKN74 cells after 48 hrs by sulforhodamine B colorimetric assay
Assay type: functional
Conditions: MKN-74, 48 h

SMILES | GI50
CCCCCCCCCCCC[C@@H](O)[C@H]1CC[C@H]([C@H](O)CCCCCCCCCCNC(=O)c2ccsc2)O1 | 1.51 µM

Tested on: HT-29
Assay: Growth inhibition of human HT-29 cells after 48 hrs by sulforhodamine B colorimetric assay
Assay type: functional
Conditions: HT-29, 48 h

GI50 | SMILES
1.91 µM | CCCCCCCCCCCC[C@@H](O)[C@H]1CC[C@H]([C@H](O)CCCCCCCCCCNC(=O)c2ccsc2)O1

Tested on: not listed separately
Assay: Growth inhibition of human HBC4 cells after 48 hrs by sulforhodamine B colorimetric assay
Assay type: functional
Conditions: HBC4, 48 h

SMILES | GI50
CCCCCCCCCCCC[C@@H](O)[C@H]1CC[C@H]([C@H](O)CCCCCCCCCCNC(=O)c2ccsc2)O1 | > 100 µM

Tested on: not listed separately
Assay: Growth inhibition of human HCC2998 cells after 48 hrs by sulforhodamine B colorimetric assay
Assay type: functional
Conditions: HCC 2998, 48 h

SMILES | GI50
CCCCCCCCCCCC[C@@H](O)[C@H]1CC[C@H]([C@H](O)CCCCCCCCCCNC(=O)c2ccsc2)O1 | 2.19 µM

Tested on: not listed separately
Assay: Growth inhibition of human HCT15 cells after 48 hrs by sulforhodamine B colorimetric assay
Assay type: functional
Conditions: HCT-15, 48 h

SMILES | GI50
CCCCCCCCCCCC[C@@H](O)[C@H]1CC[C@H]([C@H](O)CCCCCCCCCCNC(=O)c2ccsc2)O1 | 38 µM

Tested on: SF-268
Assay: Growth inhibition of human SF268 cells after 48 hrs by sulforhodamine B colorimetric assay
Assay type: functional
Conditions: SF-268, 48 h

SMILES | GI50
CCCCCCCCCCCC[C@@H](O)[C@H]1CC[C@H]([C@H](O)CCCCCCCCCCNC(=O)c2ccsc2)O1 | > 100 µM

Tested on: DU-145
Assay: Growth inhibition of human DU145 cells after 48 hrs by sulforhodamine B colorimetric assay
Assay type: functional
Conditions: DU-145, 48 h

GI50 | SMILES
2.19 µM | CCCCCCCCCCCC[C@@H](O)[C@H]1CC[C@H]([C@H](O)CCCCCCCCCCNC(=O)c2ccsc2)O1

Tested on: not listed separately
Assay: Growth inhibition of human LOXIMVI cells after 48 hrs by sulforhodamine B colorimetric assay
Assay type: functional
Conditions: LOX IMVI

SMILES | GI50
CCCCCCCCCCCC[C@@H](O)[C@H]1CC[C@H]([C@H](O)CCCCCCCCCCNC(=O)c2ccsc2)O1 | 1.51 µM

Tested on: not listed separately
Assay: Growth inhibition of human MKN28 cells after 48 hrs by sulforhodamine B colorimetric assay
Assay type: functional
Conditions: MKN-28, 48 h

SMILES | GI50
CCCCCCCCCCCC[C@@H](O)[C@H]1CC[C@H]([C@H](O)CCCCCCCCCCNC(=O)c2ccsc2)O1 | 0.575 µM

Tested on: not listed separately
Assay: Growth inhibition of human SF295 cells after 48 hrs by sulforhodamine B colorimetric assay
Assay type: functional
Conditions: SF-295, 48 h

SMILES | GI50
CCCCCCCCCCCC[C@@H](O)[C@H]1CC[C@H]([C@H](O)CCCCCCCCCCNC(=O)c2ccsc2)O1 | 1 µM

Tested on: NCI-H460
Assay: Growth inhibition of human NCI-H460 cells after 48 hrs by sulforhodamine B colorimetric assay
Assay type: functional
Conditions: NCI-H460, 48 h

GI50 | SMILES
4.9 µM | CCCCCCCCCCCC[C@@H](O)[C@H]1CC[C@H]([C@H](O)CCCCCCCCCCNC(=O)c2ccsc2)O1

Tested on: SK-OV-3
Assay: Growth inhibition of human SKOV3 cells after 48 hrs by sulforhodamine B colorimetric assay
Assay type: functional
Conditions: SK-OV-3, 48 h

GI50 | SMILES
> 100 µM | CCCCCCCCCCCC[C@@H](O)[C@H]1CC[C@H]([C@H](O)CCCCCCCCCCNC(=O)c2ccsc2)O1

Tested on: not listed separately
Assay: Growth inhibition of human SF539 cells after 48 hrs by sulforhodamine B colorimetric assay
Assay type: functional
Conditions: SF-539, 48 h

SMILES | GI50
CCCCCCCCCCCC[C@@H](O)[C@H]1CC[C@H]([C@H](O)CCCCCCCCCCNC(=O)c2ccsc2)O1 | > 100 µM

Tested on: not listed separately
Assay: Growth inhibition of human OVCAR8 cells after 48 hrs by sulforhodamine B colorimetric assay
Assay type: functional
Conditions: OVCAR-8, 48 h

SMILES | GI50
CCCCCCCCCCCC[C@@H](O)[C@H]1CC[C@H]([C@H](O)CCCCCCCCCCNC(=O)c2ccsc2)O1 | 1.91 µM

Tested on: ACHN
Assay: Growth inhibition of human ACHN cells after 48 hrs by sulforhodamine B colorimetric assay
Assay type: functional
Conditions: not given

GI50 | SMILES
3.89 µM | CCCCCCCCCCCC[C@@H](O)[C@H]1CC[C@H]([C@H](O)CCCCCCCCCCNC(=O)c2ccsc2)O1

Tested on: not listed separately
Assay: Growth inhibition of human DMS114 cells after 48 hrs by sulforhodamine B colorimetric assay
Assay type: functional
Conditions: DMS-114, 48 h

SMILES | GI50
CCCCCCCCCCCC[C@@H](O)[C@H]1CC[C@H]([C@H](O)CCCCCCCCCCNC(=O)c2ccsc2)O1 | 0.17 µM

Tested on: NCI-H23
Assay: Antitumor activity against human NCI-H23 cells xenografted in mouse assessed as inhibition of tumor growth on day 16 at 100 mg/kg, ip on day 0 and day 6
Assay type: functional, organism-based
Set-up: dose 100 mg/kg
Conditions: not given

SMILES | inhibition
CCCCCCCCCCCC[C@@H](O)[C@H]1CC[C@H]([C@H](O)CCCCCCCCCCNC(=O)c2ccsc2)O1 | Active

Tested on: not listed separately
Assay: Growth inhibition of human HCT116 cells after 48 hrs by sulforhodamine B colorimetric assay
Assay type: functional
Conditions: HCT-116, 48 h

SMILES | GI50
CCCCCCCCCCCC[C@@H](O)[C@H]1CC[C@H]([C@H](O)CCCCCCCCCCNC(=O)c2ccsc2)O1 | 1.29 µM

Tested on: not listed separately
Assay: Growth inhibition of human OVCAR5 cells after 48 hrs by sulforhodamine B colorimetric assay
Assay type: functional
Conditions: OVCAR-5, 48 h

SMILES | GI50
CCCCCCCCCCCC[C@@H](O)[C@H]1CC[C@H]([C@H](O)CCCCCCCCCCNC(=O)c2ccsc2)O1 | 2.69 µM

Tested on: not listed separately
Assay: Growth inhibition of human BSY1 cells after 48 hrs by sulforhodamine B colorimetric assay
Assay type: functional
Conditions: BSY-1, 48 h

SMILES | GI50
CCCCCCCCCCCC[C@@H](O)[C@H]1CC[C@H]([C@H](O)CCCCCCCCCCNC(=O)c2ccsc2)O1 | 3.02 µM

Tested on: not listed separately
Assay: Growth inhibition of human MKN7 cells after 48 hrs by sulforhodamine B colorimetric assay
Assay type: functional
Conditions: MKN-7, 48 h

SMILES | GI50
CCCCCCCCCCCC[C@@H](O)[C@H]1CC[C@H]([C@H](O)CCCCCCCCCCNC(=O)c2ccsc2)O1 | 0.17 µM

Tested on: not listed separately
Assay: Growth inhibition of human MKN45 cells after 48 hrs by sulforhodamine B colorimetric assay
Assay type: functional
Conditions: MKN-45, 48 h

SMILES | GI50
CCCCCCCCCCCC[C@@H](O)[C@H]1CC[C@H]([C@H](O)CCCCCCCCCCNC(=O)c2ccsc2)O1 | 3.72 µM

Tested on: not listed separately
Assay: Growth inhibition of human OVCAR4 cells after 48 hrs by sulforhodamine B colorimetric assay
Assay type: functional
Conditions: OVCAR-4, 48 h

SMILES | GI50
CCCCCCCCCCCC[C@@H](O)[C@H]1CC[C@H]([C@H](O)CCCCCCCCCCNC(=O)c2ccsc2)O1 | 1.7 µM

Tested on: U-251
Assay: Growth inhibition of human U251 cells after 48 hrs by sulforhodamine B colorimetric assay
Assay type: functional
Conditions: U-251, 48 h

GI50 | SMILES
> 100 µM | CCCCCCCCCCCC[C@@H](O)[C@H]1CC[C@H]([C@H](O)CCCCCCCCCCNC(=O)c2ccsc2)O1
